This note sets out measurements from ChEMBL document CHEMBL3616470, “Biological evaluation of angular disubstituted naphthoimidazoles as anti-inflammatory agents” (Bioorg Med Chem Lett, 2015).

By IC50 is commonly meant the concentration that gives 50% inhibition.

Structures are written as SMILES. Activity calls are given as the source filed them. The calls are words filed in the database; no cut-off is given here.

For data set [1], the system named is RAW264.7. The data set is described as follows: Cytotoxicity against mouse RAW264.7 cells assessed as cell viability at 10 to 20 uM after 24 hrs by MTT assay. In kind it is cell-based. The settings on record: raw264.7, 24 h. In general terms: Tetrazolium dyes change colour on reduction, which living cells bring about.
Data set [2] has as its system RAW264.7. The data set is described as follows: Antiinflammatory activity in mouse RAW264.7 cells assessed as inhibition of LPS-induced nitric oxide production treated 30 mins before LPS stimulation measured after 24 hrs by Griess assay. In kind it is functional, cell-based.
The subject of data set [3] is RAW264.7. As to the kind of experiment: Inhibition of NFkappaB activation in mouse RAW264.7 cells assessed as reduction of LPS-induced IkappaBbeta level in cytosol at 20 uM treated 30 mins before LPS stimulation measured after 24 hrs by Western blotting. In kind it is cell-based. (Immunoblotting shows a protein as a band on a membrane.)
For data set [4], the system named is RAW264.7. As to the kind of experiment: Antiinflammatory activity in mouse RAW264.7 cells assessed as inhibition of LPS-induced NOS2 expression at 10 to 20 uM treated 30 mins before LPS stimulation measured after 24 hrs by Western blotting. In kind it is functional, cell-based.
Data set [5] has as its system RAW264.7. As to the kind of experiment: Inhibition of NFkappaB activation in mouse RAW264.7 cells assessed as reduction of LPS-induced p65 level in nucleus at 20 uM treated 30 mins before LPS stimulation measured after 24 hrs by Western blotting. In kind it is cell-based.
In data set [6] the test system is RAW264.7. The data set is described as follows: Antiinflammatory activity in mouse RAW264.7 cells assessed as inhibition of LPS-induced COX2 expression at 10 to 20 uM treated 30 mins before LPS stimulation measured after 24 hrs by Western blotting. It counts as functional, cell-based.
Data set [7] concerns RAW264.7. As to the kind of experiment: Inhibition of NFkappaB activation in mouse RAW264.7 cells assessed as reduction of LPS-induced IkappaBalpha level in cytosol at 20 uM treated 30 mins before LPS stimulation measured after 24 hrs by Western blotting. It counts as cell-based.
The test system of data set [8] is RAW264.7. The data set is described as follows: Antiinflammatory activity in mouse RAW264.7 cells assessed as inhibition of LPS-induced NOS2 expression at 20 uM treated 30 mins before LPS stimulation measured after 24 hrs by Western blotting. In kind it is functional, cell-based.
Data set [9] deals with RAW264.7. The data set is described as follows: Antiinflammatory activity in mouse RAW264.7 cells assessed as inhibition of LPS-induced COX2 expression at 20 uM treated 30 mins before LPS stimulation measured after 24 hrs by Western blotting. It counts as functional, cell-based.

Turning to `COc1cc2nc(-c3ccc([N+](=O)[O-])cc3)n(-c3ccccc3Br)c2c2ccccc12`, the Activity result in [1] is recorded as “Non-toxic”.

Take `COc1cc(-n2c(-c3cccnc3)nc3cc(OC)c4ccccc4c32)c(OC)c2ccccc12`: the IC50 in [2] was found to be 8.4 µM. Also, the inhibition result in [2] is “Dose-dependent effect”. Also, the inhibition entry in [3], in data set [4], in [5], in data set [6] and in data set [7] was “Active” throughout. In addition, the Activity entry in data set [1] is recorded as “Non-toxic”.

`COc1cc(-n2c(-c3ccccc3)nc3cc(OC)c4ccccc4c32)c(OC)c2ccccc12`: the inhibition result in data set [8] and in [9] was “inactive” each time. In addition, the Activity result in [1] is given as “Non-toxic”.

For `COc1cc(-n2c(-c3cccc(F)c3)nc3cc(OC)c4ccccc4c32)c(OC)c2ccccc12`, the Activity result in data set [1] is listed as “Non-toxic”.

As to `COc1cc(-n2c(-c3ccc([N+](=O)[O-])cc3)nc3cc(OC)c4ccccc4c32)c(OC)c2ccccc12`, the Activity result in data set [1] was “Non-toxic”.

`COc1cc(-n2c(-c3ccsc3)nc3cc(OC)c4ccccc4c32)c(OC)c2ccccc12`: the Activity entry in [1] is “Non-toxic”.
